We go through 7 compounds from article PMC7126891 (Bioorganic & Medicinal Chemistry, 2013).

As usually defined, the kon is a measure of how fast the partners come together. One may read the koff as the first-order rate constant of dissociation.

Read-outs that look alike come from different tables or passages of the source. Some results are limits rather than exact numbers.

The target in data set [1] is T1, SARS-CoV 3CL^pro (Severe acute respiratory syndrome coronavirus, UniProt P0C6X7).
In data set [2] the target is T1, SARS-CoV 3CL^pro. Briefly: biochemical. It counts as binding.
In data set [3] the target is T1, SARS-CoV 3CL^pro. The format is biochemical.

Consider `Oc1cc(O)cc(Oc2c(O)cc(O)c3c2Oc2c(O)cc(Oc4c(O)cc(Oc5c(O)cc(O)c6c5Oc5c(O)cc(O)cc5O6)cc4O)cc2O3)c1` [Compound 8, dieckol], for which the “SI (CC50/IC50)” value at SARS-CoV 3CL^pro [1] was over 2.9. In addition, the kon on SARS-CoV 3CL^pro [2] (read-out: association rate constant kon) worked out at 7.35e+07 M⁻¹ s⁻¹. For the same compound, the koff at SARS-CoV 3CL^pro [2] (read-out: dissociation rate constant koff) amounted to 0.000843 s⁻¹. Further, the “Cell-free trans-cleavage inhibition type” value at SARS-CoV 3CL^pro [3] was “Competitive (2.4 ± 0.2)”.

Turning to `Oc1cc(O)cc(Oc2c(O)cc(O)c3c2Oc2c(O)cc4oc5c(Oc6cc(O)cc(O)c6)c(O)cc(O)c5c4c2O3)c1` [Compound 9, phlorofucofuroeckol A], the “SI (CC50/IC50)” value at SARS-CoV 3CL^pro [1] is over 1.1. The “Cell-free trans-cleavage inhibition type” value on SARS-CoV 3CL^pro [3] is “Competitive (10.6 ± 1.0)”.

Turning to `Oc1cc(O)cc(Oc2c(O)cc(O)c3c2Oc2c(O)cc(O)cc2O3)c1` [Compound 3, eckol], the “SI (CC50/IC50)” value on SARS-CoV 3CL^pro [1] was under 1. Moreover, at SARS-CoV 3CL^pro [3], the “Cell-free trans-cleavage inhibition type” value is given as “Competitive (8.2 ± 0.9)” and the “fold higher activity than triphloretol A (2)” value was found to be 20 fold.

On to `Oc1cc(O)c2oc3cc(O)c4oc5cc(O)cc(O)c5oc4c3oc2c1` [Compound 4, dioxinodehydroeckol], for which the “SI (CC50/IC50)” value at SARS-CoV 3CL^pro [1] is recorded as over 1.4.

In the case of `Oc1cc(O)cc(Oc2c(O)cc(O)c3c2Oc2c(O)cc(Oc4c(O)cc(O)cc4O)cc2O3)c1` [Compound 6, 7-phloroeckol], on SARS-CoV 3CL^pro [1], the “SI (CC50/IC50)” value is on record as over 1.8. Besides, on SARS-CoV 3CL^pro [3], the “Cell-free trans-cleavage inhibition type” value was “Competitive (19.3 ± 1.4)”.

For `Oc1cc(O)cc(Oc2c(Oc3c(O)cc(O)cc3O)cc(O)c3c2Oc2c(O)cc(O)cc2O3)c1` [Compound 5, 2-phloroeckol], the “SI (CC50/IC50)” value at SARS-CoV 3CL^pro [1] was over 1.8. In addition, at SARS-CoV 3CL^pro [3], the “Cell-free trans-cleavage inhibition type” value is listed as “Competitive (24.0 ± 1.5)” and the “fold increase of inhibitory activity versus 7-phloroeckol (6)” value is about 3 fold.

Regarding `Oc1cc(O)c(Oc2cc(O)cc(O)c2Oc2cc(O)cc(O)c2-c2c(O)cc(O)cc2O)c(O)c1` [Compound 7, fucodiphloroethol G], on SARS-CoV 3CL^pro [1] (African green monkey), the “SI (CC50/IC50)” value is on record as over 1.1. The “Cell-free trans-cleavage inhibition type” value at SARS-CoV 3CL^pro [3] was “Competitive (63.5 ± 7.1)”.
